According to patent publication US20220168328A1, “METHODS AND COMPOSITIONS FOR TREATING EUKARYOTIC INFECTIONS VIA ALTERING AGGREGATION DYNAMICS OF RAPTOR/KOG1” (ARIZONA BOARD OF REGENTS ON BEHALF OF THE UNIVERSITY OF …, priority 2014, published 2022):

How the values were obtained:
TORC1 = assay: DNA microarray measurement of TORC1 pathway output (gene expression) with and without rapamycin; assay type: cell-based, S. cerevisiae; details: salt stress, 0.4M KCl; hog1Δ versus wild-type strain
Description: Previous studies of TOR pathway signaling in stress have been limited to measuring phosphorylation of a single substrate, Sch9. As a result it was not clear whether stress signals inhibit TORC1 activity directly or simply act on one or two TORC1 targets proteins. To help distinguish between these possibilities, the complete output of TORC1 pathway in osmotic stress was measured using DNA microarrays. To do this, the cellular response was monitored with and without the potent TORC1 inhibitor rapamycin in 0.4M KCl and three control conditions: amino acid starvation, nitrogen starvation and log growth conditions.
In osmotic stress, Hog1/p38, the terminal kinase in the HOG pathway, is known to regulate many aspects of the stress response including transcription, chromatin remodeling, cell cycle check-points, and ion and glycerol channel regulation. […]
(a) DNA microarray data comparing the gene expression program activated by KCl stress and the TORC1 inhibitor rapamycin. […] A phosphorylation-induced shift in the electrophoretic mobility of Sch9-3HA was measured by performing a western blot to a SDS-PAGE gel loaded with extract from cells collected before and after treatment with 0.4M KCl, using an anti-HA antibody. […] The experiment described in (b) was carried out in triplicate in wild-type and hog1A strains and the fraction of protein in the phosphorylated state was quantified using densitometry. […]

ringworm = assay: Patient with ringworm treated with topical AICAR (Example 2); assay type: in vivo, human; details: child, 3 g AICAR
From the text: A child (height of 165 cm, weight of 55 kg) presents to their primary care physician with a red and itchy rash on their forearm. The rash is in a circular pattern. The physician diagnoses the patient with ringworm. The physician administers a dose of a topical pharmaceutical containing 3 g of AICAR, an agent that activates TORC1 aggregate formation.

esophageal candidiasis = assay: Patient with esophageal candidiasis treated with oral phenformin (Example 1); assay type: in vivo, human; details: person, 200 mg phenformin
Description: The physician notes the presence of white plaques on the patient's tongue. The physician diagnoses esophageal candidiasis. The physician administers an oral pharmaceutical containing 200 mg of phenformin, an agent that activates TORC1 aggregate formation.

Kog1 = Kog1 foci (Kog1 bodies) resolution in WT cells after glucose starvation; assay type: cell-based, budding yeast; details: cycloheximide (CHX) alone, without glucose repletion

Question: Which “more repression by rapamycin in hog1Δ than wt” value (TORC1) does the source give for CO[C@H]1C[C@@H]2CC[C@@H](C)[C@@](O)(O2)C(=O)C(=O)N2CCCC[C@H]2C(=O)O[C@H]([C@H](C)C[C@@H]2CC[C@@H](O)[C@H](OC)C2)CC(=O)[C@H](C)/C=C(\C)[C@@H](O)[C@@H](OC)C(=O)[C@H](C)C[C@H](C)/C=C/C=C/C=C/1C [rapamycin] here?
Answer: 4 fold

Question: For NC(=O)c1ncn([C@@H]2O[C@H](CO)[C@@H](O)[C@H]2O)c1N [AICAR], which “outcome by four days of treatment” value (ringworm) is on record?
Answer: the rash is gone

Question: Which “signs of improvement after one day of treatment” value (esophageal candidiasis; one day) does the source give for [H]/N=C(/N)N/C(=N/[H])NCCc1ccccc1 [phenformin] here?
Answer: absence of white plaques on the tongue and no difficulty swallowing

Question: What about the “outcome by two days of treatment” value (esophageal candidiasis; two days) of the same compound?
Answer: sore throat is gone

Question: For C[C@@H]1C[C@@H]([C@H](O)CC2CC(=O)NC(=O)C2)C(=O)[C@@H](C)C1 [cycloheximide], which “disaggregation of Kog1” value (Kog1) is on record?
Answer: does not trigger disaggregation of Kog1
